Results as given in US20260116868A1 (Arcus Biosciences, Inc., priority 2023, published 2026).

Biological target: T1, Cbl-b (Homo sapiens, UniProt Q13191)
T1 construct: biotin (biotinylated protein)
Assay: Cbl-b probe displacement HTRF binding assay
Settings: 0.4 nM Cbl-b, 150 nM BODIPY probe
Method in brief: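 Compound competes with BODIPY probe (150 nM) for biotinylated Cbl-b (0.4 nM) in HEPES/NaCl/Triton/TCEP/BSA buffer; 60 min preincubation, 15 min with probe, room temperature. Tb-streptavidin HTRF read; % displacement vs DMSO and no-protein controls, IC50 from four-parameter fit.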

T1 sequence (Q13191 whole entry, species assumed): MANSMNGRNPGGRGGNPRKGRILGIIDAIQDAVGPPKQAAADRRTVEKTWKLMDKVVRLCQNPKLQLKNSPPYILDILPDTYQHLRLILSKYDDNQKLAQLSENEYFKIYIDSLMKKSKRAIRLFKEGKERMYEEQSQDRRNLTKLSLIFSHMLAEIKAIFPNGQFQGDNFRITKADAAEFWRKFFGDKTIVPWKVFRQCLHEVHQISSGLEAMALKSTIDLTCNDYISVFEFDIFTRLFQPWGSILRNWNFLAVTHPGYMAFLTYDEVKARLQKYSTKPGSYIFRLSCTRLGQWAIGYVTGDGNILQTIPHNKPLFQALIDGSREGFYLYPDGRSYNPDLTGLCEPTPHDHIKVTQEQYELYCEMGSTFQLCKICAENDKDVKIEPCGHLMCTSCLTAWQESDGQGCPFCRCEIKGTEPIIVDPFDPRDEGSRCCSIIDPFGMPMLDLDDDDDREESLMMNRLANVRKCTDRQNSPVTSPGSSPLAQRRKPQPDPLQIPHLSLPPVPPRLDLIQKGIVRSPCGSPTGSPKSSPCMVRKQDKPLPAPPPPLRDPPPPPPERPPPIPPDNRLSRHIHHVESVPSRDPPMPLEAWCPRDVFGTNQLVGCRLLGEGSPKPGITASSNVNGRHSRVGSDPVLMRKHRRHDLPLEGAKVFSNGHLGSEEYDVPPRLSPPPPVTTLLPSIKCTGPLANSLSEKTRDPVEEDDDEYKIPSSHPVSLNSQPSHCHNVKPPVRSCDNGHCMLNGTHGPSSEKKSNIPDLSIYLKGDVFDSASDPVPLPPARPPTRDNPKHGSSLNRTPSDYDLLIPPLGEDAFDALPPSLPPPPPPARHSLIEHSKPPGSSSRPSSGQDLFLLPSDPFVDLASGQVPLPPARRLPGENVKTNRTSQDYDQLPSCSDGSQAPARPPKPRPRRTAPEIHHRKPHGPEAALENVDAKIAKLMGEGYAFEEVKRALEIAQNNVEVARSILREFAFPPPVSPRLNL

| IC50 [nM] | Compound |
| --- | --- |
| < 100 | CO[C@@H](C)[C@H](C)NCc1cc(C(=O)Nc2cc(-c3ccc(Cl)cc3C(=O)N3CC(F)C3)cc(OC(C)C)n2)c(=O)n(C2CC2)c1 [Example 259] |
| < 100 | COc1ccc(-c2cc(NC(=O)c3cc(CN[C@@H](C)C4CCC4)cn(C4CC4)c3=O)nc(C3CC3)c2)c(C(=O)N2CC(F)C2)c1 [Example 260] |
| < 100 | COc1ccc(-c2cc(NC(=O)c3cc(CNC[C@H](C)OC)cn(C4CC4)c3=O)nc(OC(C)C)c2)c(C(=O)N2CC(F)C2)c1 [Example 261] |
| < 100 | C[C@H](NCc1cc(C(=O)Nc2cc(-c3ccc(OC(F)F)cc3C(=O)N3CC(F)C3)cc(OC3CC3)n2)c(=O)n(C)c1)C1CCC1 [Example 262] |
| < 100 | CO[C@@H](C)CNCc1cc(C(=O)Nc2cc(-c3ccc(OC(F)F)cc3C(=O)N3CC(F)C3)cc(OC(C)C)n2)c(=O)n(C)c1 [Example 263] |
| < 100 | CC(C)Oc1cc(-c2ccc(Cl)cc2C(=O)N2CC(F)C2)cc(NC(=O)c2cc(CN[C@@H](C)C3CC3)cn(C3CC3)c2=O)n1 [Example 264] |
| < 100 | CO[C@@H](C)CNCc1cc(C(=O)Nc2cc(-c3ccc(C#N)cc3C(=O)N3CC(F)C3)cc(OC(C)C)n2)c(=O)n(C)c1 [Example 265] |
| < 100 | CCOc1cc(-c2ccc(OC(F)F)cc2C(=O)N2CC(F)C2)cc(NC(=O)c2cc(CNC[C@@H]3CCCO3)cn(C3CC3)c2=O)n1 [Example 266] |
| < 100 | CC(C)CNCc1cc(C(=O)Nc2cc(-c3ccc(OC(F)F)cc3C(=O)N3CC(F)C3)cc(OC(C)C)n2)c(=O)n(C2CC2)c1 [Example 267] |
| < 100 | CCOc1cc(-c2ccc(OC(F)F)cc2C(=O)N2CC(F)C2)cc(NC(=O)c2cc(CNCC(C)C)cn(C3CC3)c2=O)n1 [Example 268] |
| < 100 | COc1ccc(-c2cc(NC(=O)c3cc(CN[C@@H](C)[C@H](C)OC)cn(C4CC4)c3=O)nc(C3CC3)c2)c(C(=O)N2CC(F)C2)c1 [Example 269] |
| < 100 | COc1ccc(-c2cc(NC(=O)c3cc(CNC[C@H](C)OC)cn(C4CC4)c3=O)nc(C3CC3)c2)c(C(=O)N2CC(F)C2)c1 [Example 270] |
| < 100 | CC(C)Oc1cc(-c2ccc(Cl)cc2C(=O)N2CC(F)C2)cc(NC(=O)c2cc(CNC[C@@H]3CCCO3)cn(C3CC3)c2=O)n1 [Example 271] |
| < 100 | CC(C)CNCc1cc(C(=O)Nc2cc(-c3ccc(C#N)cc3C(=O)N3CC(F)C3)cc(OC(C)C)n2)c(=O)n(C)c1 [Example 272] |
| < 100 | CO[C@@H](C)CNCc1cc(C(=O)Nc2cc(-c3ccc(C)cc3C(=O)N3CC(F)(F)C3)cc(C3CC3)n2)c(=O)n(C2CC2)c1 [Example 273] |
| < 100 | COc1ccc(-c2cc(NC(=O)c3cc(CN[C@@H](C)C4CCC4)cn(C)c3=O)nc(OC(C)C)c2)c(C(=O)N2CC(F)C2)c1 [Example 274] |
| < 100 | CCOc1cc(-c2ccc(OC(F)F)cc2C(=O)N2CC(F)C2)cc(NC(=O)c2cc(CNC[C@H](C)OC)cn(C)c2=O)n1 [Example 275] |
| < 100 | COc1ccc(-c2cc(NC(=O)c3cc(CN[C@@H](C)C4CCC4)cn(C4CC4)c3=O)nc(OC(C)C)c2)c(C(=O)N2CC(F)(F)C2)c1 [Example 276] |
| < 100 | Cc1ccc(-c2cc(NC(=O)c3cc(CN[C@@H](C)C4CCC4)cn(C4CC4)c3=O)nc(OC(C)C)c2)c(C(=O)N2CC(F)C2)c1 [Example 277] |
| < 100 | CC(C)Nc1cc(-c2ccc(OC(F)F)cc2C(=O)N2CC(F)C2)cc(NC(=O)c2cc(CN[C@@H](C)C3CCC3)cn(C)c2=O)n1 [Example 278] |

| IC50 [nM] | Compound |
| --- | --- |
| < 100 | CC(C)Oc1cc(-c2ccc(C#N)cc2C(=O)N2CC(F)C2)cc(NC(=O)c2cc(CNC[C@@H]3CCCO3)cn(C)c2=O)n1 [Example 279] |
| < 100 | CC(C)Oc1cc(-c2ccc(OC(F)F)cc2C(=O)N2CC(F)C2)cc(NC(=O)c2cc(CNC[C@@H]3CCCO3)cn(C3CC3)c2=O)n1 [Example 280] |
| < 100 | COc1ccc(-c2cc(NC(=O)c3cc(CNCC(C)C)cn(C4CC4)c3=O)nc(OC(C)C)c2)c(C(=O)N2CC(F)C2)c1 [Example 281] |
| < 100 | CCOc1cc(-c2ccc(OC(F)F)cc2C(=O)N2CC(F)C2)cc(NC(=O)c2cc(CNC[C@@H]3CCCO3)cn(C)c2=O)n1 [Example 282] |
| < 100 | COc1ccc(-c2cc(NC(=O)c3cc(CNC[C@@H]4CCCO4)cn(C4CC4)c3=O)nc(OC(C)C)c2)c(C(=O)N2CC(F)C2)c1 [Example 283] |
| < 100 | COc1ccc(-c2cc(NC(=O)c3cc(CNCC(C)C)cn(C4CC4)c3=O)nc(C3CC3)c2)c(C(=O)N2CC(F)C2)c1 [Example 284] |
| < 100 | COCCNCc1cc(C(=O)Nc2cc(-c3ccc(Cl)cc3C(=O)N3CC(F)C3)cc(C3CC3)n2)c(=O)n(C2CC2)c1 [Example 285] |
| < 100 | CCOc1cc(-c2ccc(OC(F)F)cc2C(=O)N2CC(F)C2)cc(NC(=O)c2cc(CNCC(C)C)cn(C)c2=O)n1 [Example 286] |
| < 100 | Cc1ccc(-c2cc(NC(=O)c3cc(CNCC(C)C)cn(C4CC4)c3=O)nc(OC(C)C)c2)c(C(=O)N2CC(F)C2)c1 [Example 287] |
| < 100 | COc1ccc(-c2cc(NC(=O)c3cc(CNC[C@@H]4CCCO4)cn(C4CC4)c3=O)nc(C3CC3)c2)c(C(=O)N2CC(F)C2)c1 [Example 288] |
| < 100 | COc1ccc(-c2cc(NC(=O)c3cc(CNCC(C)C)cn(C4CC4)c3=O)nc(OC(C)C)c2)c(C(=O)N2CC(F)(F)C2)c1 [Example 289] |
| < 100 | CO[C@@H](C)CNCc1cc(C(=O)Nc2cc(-c3ccc(C)cc3C(=O)N3CC(F)C3)cc(OC(C)C)n2)c(=O)n(C2CC2)c1 [Example 290] |
| < 100 | COc1ccc(-c2cc(NC(=O)c3cc(CN[C@@H](C)C4CC4)cn(C4CC4)c3=O)nc(C3CC3)c2)c(C(=O)N2CC(F)C2)c1 [Example 291] |
| < 100 | COc1ccc(-c2cc(NC(=O)c3cc(CN[C@@H](C)C4CCC4)cn(C)c3=O)nc(OC(C)C)c2)c(C(=O)N2CC(F)(F)C2)c1 [Example 292] |
| < 100 | CC(C)Oc1cc(-c2ccc(OC(F)F)cc2C(=O)N2CC(F)(F)C2)cc(NC(=O)c2cc(CN[C@@H](C)C(C)C)cn(C3CC3)c2=O)n1 [Example 293] |
| < 100 | CC(C)CNCc1cc(C(=O)Nc2cc(-c3ccc(OC(F)F)cc3C(=O)N3CC(F)C3)cc(OC(C)C)n2)c(=O)n(C)c1 [Example 294] |
| < 100 | COc1ccc(-c2cc(NC(=O)c3cc(CN[C@@H](C)C4CCC4)cn(C4CC4)c3=O)nc(C3CC3)c2)c(C(=O)N2CC(F)(F)C2)c1 [Example 295] |
| < 100 | COc1ccc(-c2cc(NC(=O)c3cc(CN[C@@H](C)C4CCC4)cn(C)c3=O)nc(C3CC3)c2)c(C(=O)N2CC(F)C2)c1 [Example 296] |
| < 100 | CC(C)Oc1cc(-c2ccc(OC(F)F)cc2C(=O)N2CC(F)C2)cc(NC(=O)c2cc(CNC[C@@H]3CCCO3)cn(C)c2=O)n1 [Example 297] |
| < 100 | COCCNCc1cc(C(=O)Nc2cc(-c3ccc(Cl)cc3C(=O)N3CCC3)cc(C3CC3)n2)c(=O)n(C2CC2)c1 [Example 298] |

| IC50 [nM] | Compound |
| --- | --- |
| < 100 | CC(C)Nc1cc(-c2ccc(OC(F)F)cc2C(=O)N2CC(F)C2)cc(NC(=O)c2cc(CNC[C@@H]3CCCO3)cn(C)c2=O)n1 [Example 299] |
| < 100 | CO[C@@H](C)CNCc1cc(C(=O)Nc2cc(-c3ccc(C(F)F)cc3C(=O)N3CC(F)(F)C3)cc(C3CC3)n2)c(=O)n(C2CC2)c1 [Example 300] |
| < 100 | COc1ccc(-c2cc(NC(=O)c3cc(CNC[C@H](C)OC)cn(C)c3=O)nc(C3CC3)c2)c(C(=O)N2CC(F)C2)c1 [Example 301] |
| < 100 | COc1ccc(-c2cc(NC(=O)c3cc(CNC[C@H](C)OC)cn(C)c3=O)nc(OC(C)C)c2)c(C(=O)N2CC(F)C2)c1 [Example 302] |
| < 100 | COCCNCc1cc(C(=O)Nc2cc(-c3ccc(Cl)cc3C(=O)N3CC(C#N)C3)cc(C3CC3)n2)c(=O)n(C2CC2)c1 [Example 303] |
| < 100 | Cc1ccc(-c2cc(NC(=O)c3cc(CNC[C@@H]4CCCO4)cn(C4CC4)c3=O)nc(C3CC3)c2)c(C(=O)N2CC(F)(F)C2)c1 [Example 304] |
| < 100 | COc1ccc(-c2cc(NC(=O)c3cc(CNC[C@H](C)OC)cn(C4CC4)c3=O)nc(OC(C)C)c2)c(C(=O)N2CC(F)(F)C2)c1 [Example 305] |
| < 100 | COCCNCc1cc(C(=O)Nc2cc(-c3ccc(Cl)cc3C(=O)N3CC4(COC4)C3)cc(C3CC3)n2)c(=O)n(C2CC2)c1 [Example 306] |
| < 100 | COCCNCc1cc(C(=O)Nc2cc(-c3ccc(Cl)cc3C(=O)N(C)C)cc(C3CC3)n2)c(=O)n(C2CC2)c1 [Example 307] |
| < 100 | COc1ccc(-c2cc(NC(=O)c3cc(CNC[C@H](C)OC)cn(C)c3=O)nc(OC(C)C)c2)c(C(=O)N2CC(F)(F)C2)c1 [Example 308] |
| < 100 | Cc1ccc(-c2cc(NC(=O)c3cc(CNC[C@@H]4CCCO4)cn(C4CC4)c3=O)nc(OC(C)C)c2)c(C(=O)N2CC(F)C2)c1 [Example 309] |
| < 100 | CC(C)CNCc1cc(C(=O)Nc2cc(-c3ccc(C(F)F)cc3C(=O)N3CC(F)C3)cc(OC(C)C)n2)c(=O)n(C2CC2)c1 [Example 310] |
| < 100 | COc1ccc(-c2cc(NC(=O)c3cc(CNC[C@@H]4CCCO4)cn(C4CC4)c3=O)nc(OC(C)C)c2)c(C(=O)N2CC(F)(F)C2)c1 [Example 311] |
| < 100 | COc1ccc(-c2cc(NC(=O)c3cc(CN[C@@H](C)C4CC4)cn(C)c3=O)nc(C3CC3)c2)c(C(=O)N2CC(F)C2)c1 [Example 312] |
| < 100 | COc1ccc(-c2cc(NC(=O)c3cc(CN[C@@H](C)[C@H](C)OC)cn(C)c3=O)nc(C3CC3)c2)c(C(=O)N2CC(F)C2)c1 [Example 313] |
| < 100 | CO[C@@H](C)CNCc1cc(C(=O)Nc2cc(-c3ccc(Cl)cc3C(=O)N3CC[C@@H]3C)cc(C3CC3)n2)c(=O)n(C2CC2)c1 [Example 314] |
| < 100 | COc1ccc(-c2cc(NC(=O)c3cc(CNCC(C)C)cn(C)c3=O)nc(C3CC3)c2)c(C(=O)N2CC(F)C2)c1 [Example 315] |
| < 100 | CCNc1cc(-c2ccc(OC(F)F)cc2C(=O)N2CC(F)C2)cc(NC(=O)c2cc(CNC[C@@H]3CCCO3)cn(C)c2=O)n1 [Example 316] |
